In patent EP1767211B1, “Pharmaceutical agent containing hyaluronan as an active ingredient” (Glycoscience Laboratories, Inc., priority 2005, dated 2007):

Legend:
[1] = system: experimental autoimmune encephalomyelitis (EAE); assay: EAE (multiple sclerosis model) neural symptom evaluation after intraspinal administration; type: in vivo, Lewis rats; settings: for clinical score (EAE grade): Day 13 after antigen inoculation
K562 [2] = assay: Cell viability by Rhodamine 123 staining after heat treatment; type: cell-based, human; settings: 20 minutes at 43°C (heat treatment) followed by 60 minutes at 37°C, HA4 100 ng/ml
Protocol: In this example, effect of the inventive pharmaceutical agent on cell viability was measured using Rhodamine 123. […] Accordingly, the degree of the staining with Rhodamine 123 serves as an index of the mitochondrial activity, thus the index of the cellular activity (see, non-patent reference 2).
In this example, a K562 (referred to as human erythroleukemia cell or human erythroblastoid leukemia cell) was used. The K562 was purchased from RIKEN, Japan.
In this example relating to preparation of test substance, HA4 was prepared at 100 ng/ml. Specifically, HA4 was prepared by the method of Tawada et al. (Tawada A, Masa T, Oonuki Y, Watanabe A, Matsuzaki Y, Asari A. Large-scale preparation, purification and characterization of hyaluronan oligosaccharides from 4-mers to 52-mers. Glycobiology, 2002; 12(7):421-6) and the concentration was adjusted using a physiological saline.
First, the K562 was incubated under the condition described below. The culture medium for the K562 was an RPMI-1640 medium. In this example, the K562 was incubated in Groups 1 to 3 shown below. Each group was cultured under the condition described below. […]
The K562 after washing was inoculated at 1×10^4 cells/ml in a 96-well plate and a photograph was taken using a fluorescent microscope (Nikon) . The image was sent to anAdobe Photoshop (Adobe Systems) where the fluorescent intensity of a cell was measured.

K562 [3] = assay: DNA chip gene expression analysis, cell viability-related genes (Example 3); type: cell-based, human; settings: 42°C 20 minutes then 37°C 30 minutes, HA4 10 ng/ml
Protocol: First, the K562 was incubated in Groups 1 and 2 in the […] described above. The both groups were incubated at 42°C for 20 minutes followed by 37°C for 30 minutes. The medium of Group 2 was supplemented with HA4 (10 ng/ml).
After the incubation, the medium was removed by centrifugation at 1000 rpm. The obtained cells were stored in a deep freezer at -60°C. From the cells thus stored, RNA was extracted according to a standard method. The extracted RNA was subjected to the DNA chip to analyze gene expressions. The DNA chip gene expression analysis was subtracted to DNA CHIP Research Inc. Specifically, the trade name: AceGene Human Oligo Chip 30K 1 Chip Version manufactured by DNACHIP Research Inc. was employed.

K562 [4] = assay: DNA chip gene expression analysis, cytokine- and chemokine-associated genes (Example 4); type: cell-based, human; settings: 42°C 20 minutes then 37°C 30 minutes, HA4 10 ng/ml
Protocol: Experimental method: First, the K562 was incubated in Groups 1 and 2 in the RPMI medium described above. The both groups were incubated at 42°C for 20 minutes followed by 37°C for 30 minutes. The medium of Group 2 was supplemented with HA4 (10 ng/ml).
After the incubation, the medium was removed by centrifugation at 1000 rpm. The obtained cells were stored in a deep freezer at -60°C. From the cells thus stored, RNA was extracted according to a standard method. The extracted RNA was subjected to the DNA chip to analyze the gene expression. The DNA chip gene expression analysis was subtracted to DNA CHIP Research Inc. Specifically, the trade name: AceGene Human Oligo Chip 30K 1 Chip Version manufactured by DNA CHIP Research Inc. was employed.

U937 cell [5] = assay: Cytokine production under LPS stimulation, cytokine antibody array; type: cell-based, human; settings: LPS 100 ng/ml, HA4 100 ng/ml, 24 hours
Protocol: (§1) • 2. Cell: U937 cell (human monocyte line), purchased from Dainipon Sumitomo Seiyaku. • 3. Culture medium: RPMI medium (containing 10% FBS). • 4. LPS E.coli, 0111B4, Chemicon.
(§2) An U937 cell was disseminated in a 2 ml aliquot in a 6-well microplate at 5×10^5 cell/ml, supplemented with an LPS at a final concentration of 100 or 1000 ng/ml, and then incubated for 24 hours with 5% CO2 at 37°C in the presence or absence of HA4 (100 ng/ml) . The culture supernatant was centrifuged at 3000 rpm for 5 minutes to obtain a test substance. A 1 ml aliquot of the recovered supernatant was subjected to Human Cytokine Antibody array (Raybio) using an ELISA (ENDOGEN) to detect the production of various cytokines.
A 2 ml aliquot of a blocking buffer was added to a membrane blotted with an antibody, which was then shaken for 30 minutes. The blocking buffer was removed, and a 1 ml aliquot of the culture supernatant was added and shaken at room temperature for 2 hours, washed 5 times, and then admixed with a primary antibody solution. After agitating at room temperature for 1.5 hours followed by washing 5 times, a secondary antibody solution was added and agitated overnight at 4°C. After washing 5 times, a chemiluminescence was allowed to develop and photographed by a Polaroid. The photograph was scanned to obtain its digital data which were subjected to an Image J to measure the luminescent intensity. The ratio based on the luminescent intensity of an internal standard placed in 6 positions in the membrane was calculated. In addition, a relative level (%) based on the expression level in a non-treatment group (NT) being 100 was calculated.

U937 cell [6] = assay: IL-6 production under LPS stimulation, ELISA; type: cell-based, human; settings: LPS 100 ng/ml, HA4 100 ng/ml, 24 hours
Protocol: as §1, §2
To a microplate, 50 µl of a biotinylated antibody solution and 50 µl of the culture supernatant were added, and allowed to stand at room temperature for 2 hours. After washing with a washing buffer three times, 100 µl of a streptoavidin-HRP solution was added, allowed to stand at room temperature for 30 minutes, and washed with the washing buffer three times. A TMB was added, allowed to stand for at room temperature 30 minutes, and then a quencher was added to stop the reaction and the absorbance at 450 nm was measured (reference: 562 nm). The IL-6 concentration (pg/ml) was calculated based on the standard solutions measured in parallel.

cerebrospinal tissue = assay: DNA array analysis of cerebrospinal tissue of EAE model animals; type: in vivo, Lewis rats; settings: Day 14, intrathecal continuous administration 6 µg/day immediately after inoculation of antigen
[7] = Cytotoxicity (general statement); settings: at a dose exhibiting a biological activity of a pharmaceutical
[8] = intraspinal continuous administration immediately after inoculation, 6 µg/day, 22 Days
[9] = intraspinal single administration after onset of disease, 60 µg

**Q.** For tetrasaccharide hyaluronan [HA4], which “clinical score (EAE grade)” value ([1]; intraspinal continuous administration from onset of disease, 6 µg/day, 11 Days) is on record?
**A.** 1.5 ± 1.0

**Q.** And the “clinical score (EAE grade)” value [1, 8]?
**A.** 0.2 ± 0.41

**Q.** What about the “clinical score (EAE grade)” value [1, 9] of the same substance?
**A.** 1.8 ± 0.5

**Q.** And the “cases developing the disease” value [1, 8]?
**A.** 1/6

**Q.** What about the diseased period [1, 9] of the same substance?
**A.** 5.0 ± 1.5 days

**Q.** What about the “Rhodamine 123 staining performance (fluorescent intensity)” value (K562 [2]) of the same substance?
**A.** inhibited such a reduction

**Q.** And the “HAA+/- ratio” value (K562 [3]; gene Caspase 2)?
**A.** 0.27

**Q.** And the “HAA+/- ratio” value (K562 [3]; gene DNAJ2)?
**A.** 0.34

**Q.** What about the “HAA+/- ratio” value (K562 [3]; gene Granzyme H) of the same substance?
**A.** 0.38

**Q.** What about the “HAA+/- ratio” value (K562 [3]; gene STK17b (DARK2)) of the same substance?
**A.** 0.09

**Q.** And the “HAA+/- ratio” value (K562 [3]; gene TAF9L)?
**A.** 0.43

**Q.** And the “HAA+/- ratio” value (K562 [3]; gene dnaj (hsp40) homolog)?
**A.** 2.62

**Q.** And the “HAA+/- ratio” value (K562 [3]; gene pawr (Par-4))?
**A.** 0.45

**Q.** What about the “HA4(+)/HA4(-) ratio” value (K562 [4]; gene CCL28) of the same substance?
**A.** 0.32

**Q.** What about the “HA4(+)/HA4(-) ratio” value (K562 [4]; gene IFN-γ) of the same substance?
**A.** 0.11

**Q.** What about the “HA4(+)/HA4(-) ratio” value (K562 [4]; gene IFN-ω1) of the same substance?
**A.** 0.5

**Q.** What about the “HA4(+)/HA4(-) ratio” value (K562 [4]; gene IL-1β) of the same substance?
**A.** 0.36

**Q.** And the “HA4(+)/HA4(-) ratio” value (K562 [4]; gene IL-5)?
**A.** 0.28

**Q.** And the “HA4(+)/HA4(-) ratio” value (K562 [4]; gene IL-17b)?
**A.** 0.31

**Q.** What about the “HA4(+)/HA4(-) ratio” value (K562 [4]; gene IL-18RAP) of the same substance?
**A.** 0.32

**Q.** What about the “HA4(+)/HA4(-) ratio” value (K562 [4]; gene Mig(CXCL9)) of the same substance?
**A.** 0.11

**Q.** What about the “production of IL-1α” value (U937 cell [5]) of the same substance?
**A.** reduction

**Q.** What about the “production of IL-1β” value (U937 cell [5]) of the same substance?
**A.** reduction

**Q.** And the “production of IL-6” value (U937 cell [5])?
**A.** reduction

**Q.** And the “production of TGF-β” value (U937 cell [5])?
**A.** reduction

**Q.** And the “production of TNF-α” value (U937 cell [5])?
**A.** reduction

**Q.** And the “production of TNF-β” value (U937 cell [5])?
**A.** reduction

**Q.** What about the “production of IL-6” value (U937 cell [6]) of the same substance?
**A.** reduction

**Q.** What about the “Expression level ratio (HA/physiological saline)” value (cerebrospinal tissue; Decoy TRAIL receptor without death domain) of the same substance?
**A.** 2.0

**Q.** And the “Expression level ratio (HA/physiological saline)” value (cerebrospinal tissue; Fibroblast growth factor receptor substrate 2)?
**A.** 2.3

**Q.** What about the “Expression level ratio (HA/physiological saline)” value (cerebrospinal tissue; Transthyretin) of the same substance?
**A.** 0.38

**Q.** And the cytotoxicity [7]?
**A.** almost or completely no cytotoxicity
